The source of these data is PubChem BioAssay AID1259407 (Chemical Carcinogenesis Research Information System (CCRIS), 2018).

The series relates to CCRIS mutagenicity, Ames/micronucleus/aberration tests. Put plainly: CCRIS mutagenicity studies.
The mark [1] stands for this setting: Test System: AMES SALMONELLA TYPHIMURIUM, Strain/Indicator: TA98, Metabolic Activation: NONE, Method: PREINCUBATION
Setting [2] is: Test System: AMES SALMONELLA TYPHIMURIUM, Strain/Indicator: TA98, Metabolic Activation: NONE, Method: STANDARD PLATE.
Where [3] appears, read: Test System: AMES SALMONELLA TYPHIMURIUM, Strain/Indicator: TA98, Metabolic Activation: RAT, LIVER, S-9, AROCLOR 1254, Method: STANDARD PLATE.
The mark [4] stands for this setting: Test System: AMES SALMONELLA TYPHIMURIUM, Strain/Indicator: TA100, Metabolic Activation: NONE, Method: STANDARD PLATE.
Setting [5] is: Test System: AMES SALMONELLA TYPHIMURIUM, Strain/Indicator: TA100, Metabolic Activation: RAT, LIVER, S-9, AROCLOR 1254, Method: STANDARD PLATE.

The source made the active and inactive calls. How the calls were made is not given here.

Regarding `CC(C)C(=O)OCC(C)(C)C(O)C(C)C` (stereo not given), the mutagenic call runs as follows: under setting [1], “inactive; negative”; (Test System: AMES SALMONELLA TYPHIMURIUM, Strain/Indicator: TA98, Metabolic Activation: RAT LIVER S-9, PHENOBARBITAL AND BETA-NAPHTHOFLAVONE, Method: PREINCUBATION) “inactive; negative”; (Test System: AMES SALMONELLA TYPHIMURIUM, Strain/Indicator: TA100, Metabolic Activation: NONE, Method: PREINCUBATION) “inactive; negative”; (Test System: AMES SALMONELLA TYPHIMURIUM, Strain/Indicator: TA100, Metabolic Activation: RAT LIVER S-9, PHENOBARBITAL AND BETA-NAPHTHOFLAVONE, Method: PREINCUBATION) “inactive; negative”; (Test System: AMES SALMONELLA TYPHIMURIUM, Strain/Indicator: TA1535, Metabolic Activation: NONE, Method: PREINCUBATION) “inactive; negative”; (Test System: AMES SALMONELLA TYPHIMURIUM, Strain/Indicator: TA1535, Metabolic Activation: RAT LIVER S-9, PHENOBARBITAL AND BETA-NAPHTHOFLAVONE, Method: PREINCUBATION) “inactive; negative”. Besides, the mutagenic call reads like this: (Test System: AMES SALMONELLA TYPHIMURIUM, Strain/Indicator: TA1537, Metabolic Activation: NONE, Method: PREINCUBATION) “inactive; negative”; (Test System: AMES SALMONELLA TYPHIMURIUM, Strain/Indicator: TA1537, Metabolic Activation: RAT LIVER S-9, PHENOBARBITAL AND BETA-NAPHTHOFLAVONE, Method: PREINCUBATION) “inactive; negative”; (Test System: E.COLI, Strain/Indicator: WP2UVRA/PKM101, Metabolic Activation: NONE, Method: PREINCUBATION) “inactive; negative”; (Test System: E.COLI, Strain/Indicator: WP2UVRA/PKM101, Metabolic Activation: RAT LIVER S-9, PHENOBARBITAL AND BETA-NAPHTHOFLAVONE, Method: PREINCUBATION) “inactive; negative”.

Take `Cc1cc(O)c2c(c1)C(=O)c1c(c(O)cc(O)c1-c1c(O)cc(O)c3c1C(=O)c1cc(C)cc(O)c1C3=O)C2=O`: the mutagenic call reads like this: under setting [2], “inactive; negative”; under setting [3], “inactive; negative”; under setting [4], “inactive; negative”; under setting [5], “inactive; negative”; (Test System: AMES SALMONELLA TYPHIMURIUM, Strain/Indicator: TA1537, Metabolic Activation: NONE, Method: STANDARD PLATE) “inactive; negative”; (Test System: AMES SALMONELLA TYPHIMURIUM, Strain/Indicator: TA1537, Metabolic Activation: RAT, LIVER, S-9, AROCLOR 1254, Method: STANDARD PLATE) “inactive; negative”.

`CC(C)(Cl)Cl`: the mutagenic call reads like this: (Test System: AMES SALMONELLA TYPHIMURIUM, Strain/Indicator: GSTT1, Metabolic Activation: RAT, LIVER, S-9, AROCLOR 1254, Method: STANDARD PLATE) “inactive; negative”; (Test System: AMES SALMONELLA TYPHIMURIUM, Strain/Indicator: RSJ100, Metabolic Activation: NONE, Method: STANDARD PLATE) “inactive; negative”; under setting [2], “inactive; negative”; under setting [3], “inactive; negative”; under setting [4], “inactive; negative”; under setting [5], “inactive; negative”. The mutagenic call was “inactive; negative” (Test System: AMES SALMONELLA TYPHIMURIUM, Strain/Indicator: TA104, Metabolic Activation: NONE, Method: STANDARD PLATE); “inactive; negative” (Test System: AMES SALMONELLA TYPHIMURIUM, Strain/Indicator: TA104, Metabolic Activation: RAT, LIVER, S-9, AROCLOR 1254, Method: STANDARD PLATE); “inactive; negative” (Test System: AMES SALMONELLA TYPHIMURIUM, Strain/Indicator: TA1535, Metabolic Activation: NONE, Method: STANDARD PLATE); “inactive; negative” (Test System: AMES SALMONELLA TYPHIMURIUM, Strain/Indicator: TA1535, Metabolic Activation: RAT, LIVER, S-9, AROCLOR 1254, Method: STANDARD PLATE).

Regarding `O=c1cc(CO)occ1O`, the mutagenic call (End Point: IN VIVO MICRONUCLEUS, Test System: HEPATOCYTES, Species: RAT, Strain/Sex: FISHER 344 OR SD/MALE, Route: ORAL OR IP) is “inactive; negative”; the mutagenic call (End Point: IN VIVO MICRONUCLEUS, Test System: PERIPHERAL BLOOD RETICULOCYTES, Species: RAT, Strain/Sex: FISHER 344 OR SD/MALE, Route: ORAL OR IP) was “active; positive”; the mutagenic call (End Point: In vivo micronucleus, Test System: Mononucleated hepatocytes/1000 hepatocytes, Species: Mouse, Strain/Sex: Ddy/Male, Route: Oral) is “active; positive (dose related increase, significant only at high dose)”; the mutagenic call (End Point: In vivo micronucleus, Test System: Mononucleated hepatocytes/1000 hepatocytes, Species: Rat, Strain/Sex: F344/Male, Route: Oral) was “active; positive (dose related increase, significant only at high dose)”; the mutagenic call under setting [1] is “active; positive”; the mutagenic call under setting [2] is “active; positive”. Besides, the mutagenic call (Test System: AMES SALMONELLA TYPHIMURIUM, Strain/Indicator: TA98, Metabolic Activation: RAT, LIVER, S-9, AROCLOR 1254, Method: PREINCUBATION) was “active; positive”; the mutagenic call under setting [3] is “active; positive”; the mutagenic call under setting [4] was “active; positive”; the mutagenic call (Test System: AMES SALMONELLA TYPHIMURIUM, Strain/Indicator: TA100, Metabolic Activation: RAT, LIVER, MICROSOMES, PHENOBARBITAL, Method: STANDARD PLATE) is “active; positive”; the mutagenic call (Test System: AMES SALMONELLA TYPHIMURIUM, Strain/Indicator: TA100, Metabolic Activation: RAT, LIVER, S-9, AROCLOR 1254, Method: PREINCUBATION) is “inactive; negative”; the mutagenic call under setting [5] was “active; positive”. Further, the mutagenic call reads like this: (Test System: AMES SALMONELLA TYPHIMURIUM, Strain/Indicator: TA100, Metabolic Activation: RAT, LIVER, S-9, PHENOBARBITAL, Method: PREINCUBATION) “inactive; negative”; (Test System: Ames Salmonella typhimurium, Strain/Indicator: TA100, Metabolic Activation: None, Method: Preincubation) “active; positive”; (Test System: Ames Salmonella typhimurium, Strain/Indicator: TA100, Metabolic Activation: Rat, Liver, S-9, Phenobarbital and 6-naphthoflavone, Method: Preincubation) “active; positive”.

In the case of `CC(Br)(CCl)CBr` (stereo not given), the mutagenic call (Test System: AMES SALMONELLA TYPHIMURIUM, Strain/Indicator: TA98, Metabolic Activation: NONE, Method: FLASK ASSAY) was “inactive; negative”; the mutagenic call (Test System: AMES SALMONELLA TYPHIMURIUM, Strain/Indicator: TA98, Metabolic Activation: RAT, LIVER, S-9, AROCLOR 1254, Method: FLASK ASSAY) was “inactive; negative”; the mutagenic call (Test System: AMES SALMONELLA TYPHIMURIUM, Strain/Indicator: TA100, Metabolic Activation: NONE, Method: FLASK ASSAY) is “inactive; negative”; the mutagenic call (Test System: AMES SALMONELLA TYPHIMURIUM, Strain/Indicator: TA100, Metabolic Activation: RAT, LIVER, MICROSOMES, PHENOBARBITAL, Method: PREINCUBATION) was “inactive; negative”; the mutagenic call (Test System: AMES SALMONELLA TYPHIMURIUM, Strain/Indicator: TA100, Metabolic Activation: RAT, LIVER, MICROSOMES, Method: PREINCUBATION) was “inactive; negative”; the mutagenic call (Test System: AMES SALMONELLA TYPHIMURIUM, Strain/Indicator: TA100, Metabolic Activation: RAT, LIVER, S-9, AROCLOR 1254, Method: FLASK ASSAY) is “inactive; negative”. Besides, the mutagenic call (Test System: AMES SALMONELLA TYPHIMURIUM, Strain/Indicator: TA1535, Metabolic Activation: NONE, Method: FLASK ASSAY) is “inactive; negative”; the mutagenic call (Test System: AMES SALMONELLA TYPHIMURIUM, Strain/Indicator: TA1535, Metabolic Activation: RAT, LIVER, S-9, AROCLOR 1254, Method: FLASK ASSAY) was “inactive; negative”; the mutagenic call (Test System: AMES SALMONELLA TYPHIMURIUM, Strain/Indicator: TA1537, Metabolic Activation: NONE, Method: FLASK ASSAY) is “inactive; negative”; the mutagenic call (Test System: AMES SALMONELLA TYPHIMURIUM, Strain/Indicator: TA1537, Metabolic Activation: RAT, LIVER, S-9, AROCLOR 1254, Method: FLASK ASSAY) is “inactive; negative”; the mutagenic call (Test System: AMES SALMONELLA TYPHIMURIUM, Strain/Indicator: TA1538, Metabolic Activation: NONE, Method: FLASK ASSAY) is “inactive; negative”; the mutagenic call (Test System: AMES SALMONELLA TYPHIMURIUM, Strain/Indicator: TA1538, Metabolic Activation: RAT, LIVER, S-9, AROCLOR 1254, Method: FLASK ASSAY) was “inactive; negative”. The mutagenic call (Test System: MOUSE LYMPHOMA, Strain/Indicator: L5178Y (TK+/TK-), Metabolic Activation: NONE, Method: SUSPENSION/PLATE) is “active; positive” and the mutagenic call (Test System: MOUSE LYMPHOMA, Strain/Indicator: L5178Y (TK+/TK-), Metabolic Activation: RAT, LIVER, S-9, AROCLOR 1254, Method: SUSPENSION/PLATE) is “inactive; negative”.
